In patent US11306081B2, “Phenylacetamides as inhibitors of rock” (BRISTOL-MYERS SQUIBB COMPANY, priority 2017, dated 2022):

Biological target: ROCK2 (Homo sapiens (Human), UniProt O75116)
Assay: ROCK assay (LABCHIP 3000 peptide phosphorylation assay)
Format: biochemical
Conditions: 5 μM ATP, 1.5 μM peptide substrate, dose-response
Summary of the method: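 Rho kinase variants in 20 mM HEPES pH 7.5, 20 mM MgCl2, 0.015% Brij-35, 4 mM DTT, 5 μM ATP, 1.5 μM FITC-AHA-AKRRRLSSLRA-OH peptide; DMSO <2%. EDTA-stopped; phosphorylated/non-phosphorylated peptide separated by microfluidic LabChip readout. Dose-response inhibition curve-fitted to give IC50.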

Sequence of ROCK2 (O75116 whole entry, species assumed): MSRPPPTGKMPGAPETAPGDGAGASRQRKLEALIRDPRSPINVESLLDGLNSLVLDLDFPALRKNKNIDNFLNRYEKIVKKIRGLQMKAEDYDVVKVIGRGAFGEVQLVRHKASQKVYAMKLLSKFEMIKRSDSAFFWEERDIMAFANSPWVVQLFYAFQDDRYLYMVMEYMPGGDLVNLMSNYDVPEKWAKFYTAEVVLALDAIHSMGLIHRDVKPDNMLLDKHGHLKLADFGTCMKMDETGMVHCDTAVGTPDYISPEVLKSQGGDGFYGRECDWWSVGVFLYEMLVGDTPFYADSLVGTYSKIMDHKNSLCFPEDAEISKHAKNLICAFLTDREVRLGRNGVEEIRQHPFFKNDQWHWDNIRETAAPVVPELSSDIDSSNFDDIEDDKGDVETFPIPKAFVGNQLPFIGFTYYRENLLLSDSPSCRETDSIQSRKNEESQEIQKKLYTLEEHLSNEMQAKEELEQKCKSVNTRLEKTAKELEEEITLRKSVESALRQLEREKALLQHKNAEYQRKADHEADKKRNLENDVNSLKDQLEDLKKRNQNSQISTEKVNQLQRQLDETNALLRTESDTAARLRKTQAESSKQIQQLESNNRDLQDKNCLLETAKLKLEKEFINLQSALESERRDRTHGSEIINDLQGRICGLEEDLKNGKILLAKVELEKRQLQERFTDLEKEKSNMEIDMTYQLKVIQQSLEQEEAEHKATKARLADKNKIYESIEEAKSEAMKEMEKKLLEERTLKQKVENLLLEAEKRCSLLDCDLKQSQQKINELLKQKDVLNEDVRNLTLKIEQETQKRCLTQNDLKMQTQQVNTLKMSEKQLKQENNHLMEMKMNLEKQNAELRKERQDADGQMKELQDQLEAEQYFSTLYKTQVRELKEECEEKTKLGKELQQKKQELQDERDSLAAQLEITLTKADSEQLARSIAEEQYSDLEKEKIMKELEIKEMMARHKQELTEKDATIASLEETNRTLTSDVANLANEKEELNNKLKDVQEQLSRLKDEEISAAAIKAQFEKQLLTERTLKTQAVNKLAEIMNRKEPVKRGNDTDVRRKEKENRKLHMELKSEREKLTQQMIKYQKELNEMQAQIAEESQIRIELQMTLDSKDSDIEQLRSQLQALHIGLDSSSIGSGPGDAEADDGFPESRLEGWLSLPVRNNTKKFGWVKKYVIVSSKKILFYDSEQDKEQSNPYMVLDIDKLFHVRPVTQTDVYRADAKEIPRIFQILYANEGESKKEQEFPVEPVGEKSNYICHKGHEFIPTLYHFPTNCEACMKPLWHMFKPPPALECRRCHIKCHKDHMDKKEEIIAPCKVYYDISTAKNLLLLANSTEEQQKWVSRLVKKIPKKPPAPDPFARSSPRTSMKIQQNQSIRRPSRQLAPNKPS

IC50 | SMILES
34 nM | NC(=O)c1cccnc1Oc1ccc(CC(=O)Nc2nc3c(C(F)(F)F)cccn3n2)cc1F [Example 141, 2-(2-fluoro-4-(2-oxo-2-((8-(trifluoromethyl)-[1,2,4]triazolo[1,5-a]pyridin-2-yl)amino)ethyl)phenoxy)nicotinamide]
72 nM | NC(=O)c1cccnc1Oc1ccc(CC(=O)Nc2nc3cc(F)ccn3n2)cc1F [Example 142, 2-(2-fluoro-4-(2-((7-fluoro-[1,2,4]triazolo[1,5-a]pyridin-2-yl)amino)-2-oxoethyl)phenoxy)nicotinamide]
6 nM | NC(=O)c1cccnc1Oc1ccc(CC(=O)Nc2nc3cc(OCc4ccccc4)ccn3n2)cc1F [Example 143, 2-(4-(2-((7-(benzyloxy)-[1,2,4]triazolo[1,5-a]pyridin-2-yl)amino)-2-oxoethyl)-2-fluorophenoxy)nicotinamide]
5 nM | Cn1cc(-c2ccc3nc(NC(=O)Cc4ccc(Oc5ncccc5C(N)=O)c(F)c4)n(CC4CC4)c3c2)cn1 [Example 144, 2-(4-(2-((1-(cyclopropylmethyl)-6-(1-methyl-1H-pyrazol-4-yl)-1H-benzo[d]imidazol-2-yl)amino)-2-oxoethyl)-2-fluorophenoxy)nicotinamide]
133 nM | CP(C)(=O)c1ccc2nc(NC(=O)Cc3ccc(Oc4ncccc4C(N)=O)c(F)c3)n(CC3CC3)c2c1 [Example 145, 2-(4-(2-((1-(cyclopropylmethyl)-6-(dimethylphosphoryl)-1H-benzo[d]imidazol-2-yl)amino)-2-oxoethyl)-2-fluorophenoxy)nicotinamide]
132 nM | CP(C)(=O)c1ccc2sc(NC(=O)Cc3ccc(Oc4ncccc4C(N)=O)c(F)c3)nc2c1 [Example 146]
1390 nM | CP(C)(=O)c1cccc2nc(NC(=O)Cc3ccc(Oc4ncccc4C(N)=O)c(F)c3)nn12 [Example 147]
147 nM | CP(C)(=O)c1ccc2c(c1)nc(NC(=O)Cc1ccc(Oc3ncccc3C(N)=O)c(F)c1)n2CC(F)(F)F [Example 148, 2-(4-(2-((5-(dimethyl-phosphoryl)-1-(2,2,2-trifluoroethyl)-1H-benzo[d]imidazol-2-yl)amino)-2-oxoethyl)-2-fluorophenoxy)-nicotinamide]
1230 nM | CP(C)(=O)c1ccc2nc(NC(=O)Cc3ccc(Oc4ncccc4C(N)=O)c(F)c3)cn2c1 [Example 149, 2-(4-(2-((6-(dimethyl-phosphoryl)imidazo-[1,2-a]pyridin-2-yl)-amino)-2-oxoethyl)-2-fluorophenoxy)-nicotinamide]
465 nM | CP(C)(=O)c1ccc2nc(NC(=O)Cc3ccc(Oc4ncccc4C(N)=O)c(F)c3)n(CC(F)F)c2c1 [Example 150, 2-(4-(2-((1-(2,2-difluoroethyl)-6-(dimethylphosphoryl)-1H-benzo[d]imidazol-2-yl)amino)-2-oxo-ethyl)-2-fluoro-phenoxy)nicotinamide]
44 nM | Cc1cccc(-c2nc(NC(=O)Cc3ccc(Oc4ncccc4C(N)=O)c(F)c3)sc2C)n1 [Example 151, 2-(2-fluoro-4-(2-((5-methyl-4-(6-methylpyridin-2-yl)thiazol-2-yl)amino)-2-oxoethyl)phenoxy)nicotinamide]
55 nM | NC(=O)c1cccnc1Oc1ccc(CC(=O)Nc2nc3ccccc3n2CC2CCC2)cc1F [Example 152, 2-(4-(2-((1-(cyclobutylmethyl)-1H-benzo[d]imidazol-2-yl)amino)-2-oxoethyl)-2-fluorophenoxy)nicotinamide]
218 nM | CC(C)n1c(NC(=O)Cc2ccc(Oc3ncccc3C(N)=O)c(F)c2)nc2ccccc21 [Example 153, 2-(2-fluoro-4-(2-((1-isopropyl-1H-benzo[d]imidazol-2-yl)amino)-2-oxoethyl)-phenoxy)nicotinamide]
42 nM | NC(=O)c1cccnc1Oc1ccc(CC(=O)Nc2nc3ccccc3n2CCC(F)(F)F)cc1F [Example 154, 2-(2-fluoro-4-(2-oxo-2-((1-(3,3,3-trifluoropropyl)-1H-benzo[d]-imidazol-2-yl)-amino)ethyl)-phenoxy)nicotin-amide]
1930 nM | COCCn1c(NC(=O)Cc2ccc(Oc3ncccc3C(N)=O)c(F)c2)nc2ccccc21 [Example 155, 2-(2-fluoro-4-(2-((1-(2-methoxyethyl)-1H-benzo[d]-imidazol-2-yl)-amino)-2-oxo-ethyl)phenoxy)-nicotinamide]
3460 nM | COCCn1c(NC(=O)Cc2ccc(Oc3ncccc3C(N)=O)c(F)c2)nc2cc(C(N)=O)ccc21 [Example 156, 2-(2-(4-((3-carbamoyl-pyridin-2-yl)oxy)-3-fluorophenyl)-acetamido)-1-(2-methoxyethyl)-1H-benzo[d]-imidazole-5-carboxamide]
804 nM | COCCn1c(NC(=O)Cc2ccc(Oc3ncccc3C(N)=O)c(F)c2)nc2ccc(OC)cc21 [Example 157, 2-(2-fluoro-4-(2-((6-methoxy-1-(2-methoxyethyl)-1H-benzo[d]-imidazol-2-yl)-amino)-2-oxo-ethyl)phenoxy)-nicotinamide]

IC50 | SMILES
1720 nM | COCCn1c(NC(=O)Cc2ccc(Oc3ncccc3C(N)=O)c(F)c2)nc2ccc(C(N)=O)cc21 [Example 158, 2-(2-(4-((3-carbamoyl-pyridin-2-yl)oxy)-3-fluorophenyl)-acetamido)-1-(2-methoxyethyl)-1H-benzo[d]-imidazole-6-carboxamide]
2180 nM | NC(=O)c1cccnc1Oc1ccc(CC(=O)Nc2nc3ccccc3n2CC2CCOCC2)cc1F [Example 159, 2-(2-fluoro-4-(2-oxo-2-((1-((tetra-hydro-2H-pyran-4-yl)methyl)-1H-benzo[d]imidazol-2-yl)amino)ethyl)-phenoxy)nicotin-amide]
39 nM | COc1ccc2nc(NC(=O)Cc3ccc(Oc4ncccc4C(N)=O)c(F)c3)n(CC3CC3)c2c1 [Example 160, 2-(4-(2-((1-(cyclopropyl-methyl)-6-methoxy-1H-benzo[d]-imidazol-2-yl)-amino)-2-oxoethyl)-2-fluorophenoxy)-nicotinamide]
16 nM | NC(=O)c1cccnc1Oc1ccc(CC(=O)Nc2nc3c(F)cccc3n2CC2CC2)cc1F [Example 161, 2-(4-(2-((1-(cyclopropyl-methyl)-4-fluoro-1H-benzo[d]-imidazol-2-yl)-amino)-2-oxoethyl)-2-fluorophenoxy)-nicotinamide]
47 nM | COc1ccc2c(c1)nc(NC(=O)Cc1ccc(Oc3ncccc3C(N)=O)c(F)c1)n2CC1CC1 [Example 162, 2-(4-(2-((1-(cyclopropyl-methyl)-5-methoxy-1H-benzo[d]-imidazol-2-yl)-amino)-2-oxoethyl)-2-fluorophenoxy)-nicotinamide]
16 nM | COc1cccc2c1nc(NC(=O)Cc1ccc(Oc3ncccc3C(N)=O)c(F)c1)n2CC1CC1 [Example 163, 2-(4-(2-((1-(cyclo-propylmethyl)-4-methoxy-1H-benzo[d]imidazol-2-yl)amino)-2-oxoethyl)-2-fluorophenoxy)-nicotinamide]
12 nM | NC(=O)c1cccnc1Oc1ccc(CC(=O)Nc2nc3cccc(F)c3n2CC2CC2)cc1F [Example 164, 2-(4-(2-((1-(cyclopropyl-methyl)-7-fluoro-1H-benzo[d]-imidazol-2-yl)-amino)-2-oxo-ethyl)-2-fluoro-phenoxy)nicotin-amide]
26 nM | NC(=O)c1cccnc1Oc1ccc(CC(=O)Nc2nc3cc(F)ccc3n2CC2CC2)cc1F [Example 165]
24 nM | NC(=O)c1cccnc1Oc1ccc(CC(=O)Nc2nc3ccc(F)cc3n2CC(F)F)cc1F [Example 166, 2-(4-(2-((1-(2,2-difluoroethyl)-6-fluoro-1H-benzo[d]-imidazol-2-yl)-amino)-2-oxo-ethyl)-2-fluoro-phenoxy)nicotin-amide]
25 nM | NC(=O)c1cccnc1Oc1ccc(CC(=O)Nc2nc3ccccc3n2CC2CC2)cc1F [Example 167, 2-(4-(2-((1-(cyclo-propylmethyl)-1H-benzo[d]-imidazol-2-yl)-amino)-2-oxo-ethyl)-2-fluoro-phenoxy)nicotin-amide]
18 nM | NC(=O)c1cccnc1Oc1ccc(CC(=O)Nc2nc3ccc(F)cc3n2CC2CC2)cc1F [Example 168, 2-(4-(2-((1-(cyclopropyl-methyl)-6-fluoro-1H-benzo[d]-imidazol-2-yl)-amino)-2-oxo-ethyl)-2-fluoro-phenoxy)nicotin-amide]
13 nM | NC(=O)c1cccnc1Oc1ccc(CC(=O)Nc2nc3c(F)cccc3n2CC(F)F)cc1F [Example 169, 2-(4-(2-((1-(2,2-difluoroethyl)-4-fluoro-1H-benzo[d]-imidazol-2-yl)-amino)-2-oxo-ethyl)-2-fluoro-phenoxy)nicotin-amide]
31 nM | NC(=O)c1cccnc1Oc1ccc(CC(=O)Nc2nc3ccc(OCc4ccccc4)cc3n2CC2CC2)cc1F [Example 170, 2-(4-(2-((6-(benzyloxy)-1-(cyclo-propylmethyl)-1H-benzo[d]-imidazol-2-yl)-amino)-2-oxo-ethyl)-2-fluoro-phenoxy)nicotin-amide]
3 nM | NC(=O)c1cccnc1Oc1ccc(CC(=O)Nc2nc3c(F)cccc3n2CC2CC2)cc1Cl [Example 171, 2-(2-chloro-4-(2-((1-(cyclo-propylmethyl)-4-fluoro-1H-benzo[d]-imidazol-2-yl)-amino)-2-oxo-ethyl)phenoxy)-nicotinamide]
7 nM | NC(=O)c1cccnc1Oc1ccc(CC(=O)Nc2nc3ccc(F)cc3n2CC2CC2)cc1Cl [Example 172, 2-(2-chloro-4-(2-((1-(cyclopropyl-methyl)-6-fluoro-1H-benzo[d]-imidazol-2-yl)-amino)-2-oxo-ethyl)phenoxy)-nicotinamide]
8 nM | NC(=O)c1cccnc1Oc1ccc(CC(=O)Nc2nc3c(F)cccc3n2CC(F)F)cc1Cl [Example 173, 2-(2-chloro-4-(2-((1-(2,2-difluoro-ethyl)-4-fluoro-1H-benzo[d]-imidazol-2-yl)-amino)-2-oxo-ethyl)phenoxy)-nicotinamide]
